Experimental data: the NIST ThermoML archive (doi:10.1016/j.fluid.2016.10.024)
Numbers after ± are expanded uncertainties.

Assay: refractive index (Na D-line) (dimensionless)
Conditions: 293.15 K; 101.33 kPa; Liquid; Standard Abbe refractometry

SMILES	refractive index
CC(C)=O [acetone]	1.3588 ± 0.0011
CCC(C)O (stereo not drawn) [butan-2-ol]	1.3978 ± 0.0011
CCC(=O)O [propanoic acid]	1.3809 ± 0.001
